{"source": "paper PMC3565011", "about": "(Xenobiotica; the fate of foreign compounds in biological …, 2011)", "key": {"[1]": {"target": "CYP3A4 (Homo sapiens, UniProt P08684)", "sequence (P08684 whole entry)": "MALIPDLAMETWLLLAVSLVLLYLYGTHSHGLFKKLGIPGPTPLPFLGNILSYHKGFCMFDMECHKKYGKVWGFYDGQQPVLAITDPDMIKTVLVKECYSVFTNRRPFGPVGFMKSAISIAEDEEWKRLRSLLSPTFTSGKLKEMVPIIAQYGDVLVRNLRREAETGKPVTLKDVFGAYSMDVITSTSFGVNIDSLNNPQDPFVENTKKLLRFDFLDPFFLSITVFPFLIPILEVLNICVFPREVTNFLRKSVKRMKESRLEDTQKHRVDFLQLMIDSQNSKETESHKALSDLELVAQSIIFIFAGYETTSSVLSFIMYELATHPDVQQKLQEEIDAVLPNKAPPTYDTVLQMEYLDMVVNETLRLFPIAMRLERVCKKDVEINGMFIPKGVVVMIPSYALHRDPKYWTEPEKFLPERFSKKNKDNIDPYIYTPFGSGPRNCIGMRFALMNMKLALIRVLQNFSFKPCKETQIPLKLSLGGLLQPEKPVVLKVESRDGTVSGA", "assay": "Midazolam 1'-hydroxylation", "type": "in vitro ADME", "conditions": "for % inhibition (10 µM) of CYP3A4, class / % inhibition (10 µM) of CYP3A4 / IC50: midazolam hydroxylation; for % inhibition (10 µM) of CYP3A4: average of triplicates ± S.D.; for IC50: read-out: IC50 CYP3A4"}, "[2]": {"system": "CYP3A4", "conditions": "cited from earlier work"}, "[3]": {"system": "tamoxifen N-demethylation (N-desmethyl TAM formation) by human liver microsomes", "assay": "in vitro", "conditions": "female, pH 7.4"}, "[4]": {"system": "tamoxifen α-hydroxylation (α-OH TAM formation) by human liver microsomes", "assay": "in vitro", "conditions": "female, pH 7.4"}, "[5]": {"system": "tamoxifen 4-hydroxylation (4-OH TAM formation) by human liver microsomes", "assay": "in vitro", "conditions": "female, pH 7.4"}, "[6]": {"target": "CYP2D6 (Homo sapiens, UniProt P10635)", "sequence (P10635 whole entry)": "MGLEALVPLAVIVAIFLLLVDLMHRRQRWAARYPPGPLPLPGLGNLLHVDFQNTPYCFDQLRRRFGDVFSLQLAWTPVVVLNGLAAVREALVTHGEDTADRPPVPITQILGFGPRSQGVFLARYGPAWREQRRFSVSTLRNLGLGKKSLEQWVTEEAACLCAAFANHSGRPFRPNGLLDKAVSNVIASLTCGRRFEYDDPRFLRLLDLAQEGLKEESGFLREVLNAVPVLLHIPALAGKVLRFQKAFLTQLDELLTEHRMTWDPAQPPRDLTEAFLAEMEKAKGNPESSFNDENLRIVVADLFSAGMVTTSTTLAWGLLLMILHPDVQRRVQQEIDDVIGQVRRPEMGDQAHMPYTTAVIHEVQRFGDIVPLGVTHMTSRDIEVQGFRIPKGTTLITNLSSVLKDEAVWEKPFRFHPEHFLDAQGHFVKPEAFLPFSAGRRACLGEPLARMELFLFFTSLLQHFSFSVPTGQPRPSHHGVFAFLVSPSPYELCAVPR", "assay": "Dextromethorphan demethylation", "type": "in vitro ADME"}}}
{"molecule": "1-α-hydroxycimigenol-3-O- α-L-arabinopyranoside [Compound 19]", "values": [{"measurement": "% inhibition (10 µM) of CYP3A4, class", "setting": "[1]", "value": "N/A (N/A, Not active = < 50% inhibition at 10 µM)"}]}
{"molecule": "1-α-hydroxycimigenol-3-O-β-D-xylopyranoside [Compound 21]", "values": [{"measurement": "% inhibition (10 µM) of CYP3A4, class", "setting": "[1]", "value": "N/A (N/A, Not active = < 50% inhibition at 10 µM)"}]}
{"molecule": "7-β-hydroxycimigenol aglycone [Compound 20]", "values": [{"measurement": "% inhibition (10 µM) of CYP3A4", "setting": "[1]", "value": "64.9±1.1", "unit": "%"}]}
{"molecule": "23-O-acetylshengmanol-3-β-D-xylopyranoside [Compound 12]", "values": [{"measurement": "CYP3A4 inhibition (in words)", "setting": "[2]", "value": "weak inhibitor"}]}
{"molecule": "25-O-acetyl-7-β-hydroxycimigenol-3-O-β-xylopyranoside [Compound 22]", "values": [{"measurement": "% inhibition (10 µM) of CYP3A4", "setting": "[1]", "value": "61.8±0.2", "unit": "%"}]}
{"molecule": "25-O-acetylcimigenol-3-O-α-arabinopyranoside [Compound 9]", "values": [{"measurement": "% inhibition (10 µM) of CYP3A4, class", "setting": "[1]", "value": "N/A (N/A, Not active = < 50% inhibition at 10 µM)"}]}
{"molecule": "25-O-acetylcimigenol-3-O-β-xylopyranoside [Compound 8]", "values": [{"measurement": "% inhibition (10 µM) of CYP3A4, class", "setting": "[1]", "value": "N/A (N/A, Not active = < 50% inhibition at 10 µM)"}]}
{"molecule": "25-anhydrocimigenol-3-O-β-arabinopyranoside [Compound 10]", "values": [{"measurement": "% inhibition (10 µM) of CYP3A4, class", "setting": "[1]", "value": "N/A (N/A, Not active = < 50% inhibition at 10 µM)"}]}
{"molecule": "25-anhydrocimigenol-3-O-β-xylopyranoside [Compound 3]", "values": [{"measurement": "% inhibition (10 µM) of CYP3A4, class", "setting": "[1]", "value": "N/A (N/A, Not active = < 50% inhibition at 10 µM)"}]}
{"molecule": "COc1ccc2c(c1OC)CN(C)CCc1cc3c(cc1C(=O)C2)OCO3", "note": "[Allocryptopine, allocryptopine]", "values": [{"measurement": "inhibition at 20 min, 10 µM", "setting": "[3]", "value": "16.8 ± 2.8", "unit": "%"}, {"measurement": "inhibition at 20 min, 10 µM", "setting": "[4]", "value": "< 10", "unit": "%"}, {"measurement": "inhibition at 20 min, 10 µM", "setting": "[5]", "value": "57.9 ± 4.3", "unit": "%"}]}
{"molecule": "CC(=O)O[C@@H]1C[C@@]23C[C@@]24CC[C@H](O[C@@H]2OC[C@@H](O)[C@H](O)[C@H]2O)C(C)(C)[C@@H]4CC[C@H]3[C@]2(C)C[C@@H]3O[C@@]4(C[C@@H](C)[C@@H]3[C@@]12C)OC[C@@]1(C)O[C@@H]41", "note": "[Compound 1, 23-epi-26-deoxyactein]", "values": [{"measurement": "activity against CYP3A4 (in words)", "setting": "[1]", "value": "inactive"}, {"measurement": "activity against CYP2D6 (in words)", "setting": "[6]", "value": "inactive"}]}
{"molecule": "CC(=O)O[C@@H]1C[C@@]23C[C@@]24CC[C@H](O[C@@H]2OC[C@@H](O)[C@H](O)[C@H]2O)C(C)(C)[C@@H]4CC[C@H]3[C@]2(C)C[C@@H]3O[C@]4(C[C@@H](C)[C@@H]3[C@@]12C)OC[C@@]1(C)O[C@@H]41", "note": "[Compound 4, 26-deoxyactein]", "values": [{"measurement": "activity against CYP3A4 (in words)", "setting": "[1]", "value": "inactive"}, {"measurement": "% inhibition (10 µM) of CYP3A4, class", "setting": "[1]", "value": "N/A (N/A, Not active = < 50% inhibition at 10 µM)"}, {"measurement": "activity against CYP2D6 (in words)", "setting": "[6]", "value": "inactive"}]}
{"molecule": "CC(=O)O[C@@H]1C[C@@]23C[C@@]24CC[C@H](O[C@@H]2OC[C@@H](O)[C@H](O)[C@H]2O)C(C)(C)[C@@H]4CC[C@H]3[C@]2(C)C[C@@H]3O[C@]4(C[C@@H](C)[C@@H]3[C@@]12C)OC(=O)[C@]1(C)O[C@H]41", "note": "[Compound 5, Cimiracemoside P]", "values": [{"measurement": "% inhibition (10 µM) of CYP3A4, class", "setting": "[1]", "value": "N/A (N/A, Not active = < 50% inhibition at 10 µM)"}]}
{"molecule": "C=C(C)[C@@H]1O[C@@]23O[C@@H]1C[C@@H](C)[C@@H]2[C@@]1(C)[C@H](OC(C)=O)C[C@@]24C[C@@]25CC[C@H](O[C@@H]2OC[C@H](O)[C@H](O)[C@H]2O)C(C)(C)[C@@H]5CC[C@H]4[C@]1(C)[C@H]3O", "note": "[Compound 6, Cimiracemoside J]", "values": [{"measurement": "% inhibition (10 µM) of CYP3A4, class", "setting": "[1]", "value": "N/A (N/A, Not active = < 50% inhibition at 10 µM)"}]}
{"molecule": "C=C(C)[C@@H]1O[C@@]23O[C@@H]1C[C@@H](C)[C@@H]2[C@@]1(C)[C@H](OC(C)=O)C[C@@]24C[C@@]25CC[C@H](O[C@@H]2OC[C@@H](O)[C@H](O)[C@H]2O)C(C)(C)[C@@H]5CC[C@H]4[C@]1(C)[C@H]3O", "note": "[Compound 7, Cimiracemoside K]", "values": [{"measurement": "% inhibition (10 µM) of CYP3A4", "setting": "[1]", "value": "85.2±0.3", "unit": "%"}, {"measurement": "IC50", "setting": "[1]", "value": "3.8 ± 0.5", "unit": "µM"}]}
{"molecule": "CC(=O)O[C@@H]1C[C@@]23C[C@@]24CC[C@H](O[C@@H]2OC[C@@H](O)[C@H](O)[C@H]2O)C(C)(C)[C@@H]4CC[C@H]3[C@]2(C)C[C@@H]3O[C@]4(C[C@@H](C)[C@@H]3[C@@]12C)O[C@H](O)[C@@]1(C)O[C@@H]41", "note": "[Compound 11, Actein (R,S)]", "values": [{"measurement": "activity against CYP3A4 (in words)", "setting": "[1]", "value": "inactive"}, {"measurement": "% inhibition (10 µM) of CYP3A4, class", "setting": "[1]", "value": "N/A (N/A, Not active = < 50% inhibition at 10 µM)"}, {"measurement": "activity against CYP2D6 (in words)", "setting": "[6]", "value": "inactive"}]}
{"molecule": "CC(=O)O[C@@H]1C[C@@]23C[C@@]24CC[C@H](O[C@@H]2OC[C@H](O)[C@H](O)[C@H]2O)C(C)(C)[C@@H]4CC[C@H]3[C@]2(C)C[C@@H]3O[C@]4(C[C@@H](C)[C@@H]3[C@@]12C)OC[C@]1(C)O[C@H]41", "note": "[Compound 13, Cimiracemoside N]", "values": [{"measurement": "% inhibition (10 µM) of CYP3A4, class", "setting": "[1]", "value": "N/A (N/A, Not active = < 50% inhibition at 10 µM)"}]}
{"molecule": "CC(=O)O[C@H]1[C@H](O[C@H]2CC[C@]34C[C@]35C[C@@H](OC(C)=O)[C@]3(C)[C@H]6[C@H](C)C[C@@]7(O[C@H]6C[C@@]3(C)[C@@H]5CC[C@H]4C2(C)C)O[C@H](O)[C@@]2(C)O[C@@H]72)OC[C@@H](O)[C@@H]1O", "note": "[Compound 14, 2’-O-acetyl-Actein]", "values": [{"measurement": "% inhibition (10 µM) of CYP3A4, class", "setting": "[1]", "value": "N/A (N/A, Not active = < 50% inhibition at 10 µM)"}]}
{"molecule": "CC(=O)O[C@@H]1CO[C@@H](O[C@H]2CC[C@]34C[C@]35C[C@@H](OC(C)=O)[C@]3(C)[C@H]6[C@H](C)C[C@]7(OC(O)[C@]8(C)O[C@H]78)O[C@H]6C[C@@]3(C)[C@@H]5CC[C@H]4C2(C)C)[C@H](O)[C@H]1O", "note": "(stereo partly drawn) [Compound 15, Cimiracemoside O]", "values": [{"measurement": "% inhibition (10 µM) of CYP3A4", "setting": "[1]", "value": "74.8±0.1", "unit": "%"}, {"measurement": "IC50", "setting": "[1]", "value": "5.1 ± 0.4", "unit": "µM"}]}
{"molecule": "CC(=O)O[C@H]1CO[C@@H](O[C@H]2CC[C@]34C[C@]35CC[C@]3(C)[C@@H]([C@H](C)C[C@@H](OC(C)=O)[C@@H]6OC6(C)C)C(=O)[C@H](O)[C@@]3(C)[C@@H]5CC[C@H]4C2(C)C)[C@H](O)[C@H]1O", "note": "[Compound 16, Cimiracemoside L]", "values": [{"measurement": "% inhibition (10 µM) of CYP3A4", "setting": "[1]", "value": "94.2±0.3", "unit": "%"}, {"measurement": "IC50", "setting": "[1]", "value": "2.4 ± 0.2", "unit": "µM"}]}
{"molecule": "C[C@H](CC(=O)[C@@H]1OC1(C)C)[C@H]1C(=O)C[C@@]2(C)C3=CC[C@H]4C(C)(C)[C@@H](O[C@@H]5OC[C@@H](O)[C@H](O)[C@H]5O)CC[C@@]45C[C@@]35[C@@H](O)C[C@]12C", "note": "[Compound 17, Cimicifugoside H-1]", "values": [{"measurement": "% inhibition (10 µM) of CYP3A4, class", "setting": "[1]", "value": "N/A (N/A, Not active = < 50% inhibition at 10 µM)"}]}
{"molecule": "CN1CCc2cc3c(cc2C(=O)Cc2ccc4c(c2C1)OCO4)OCO3", "note": "[Protopine, protopine]", "values": [{"measurement": "Ki", "setting": "[6]", "value": 0.078, "unit": "µM"}]}
